Laboratory results reported in US7855290B2, “Pyridine derivatives and pyrimidine derivatives (3)” (Eisai R&D Management Co., Ltd., priority 2005, dated 2010).

Columns and labels:
HGFR = biological target: T1, HGFR (Homo sapiens, UniProt P08581); assay: Inhibitory activity against the HGFR autophosphorylation using ELISA (MKN-45 cells); assay type: cell-based; details: 1 hr with test substance
T1 construct: endogenous in cells; host or cells: MKN-45 human gastric cancer cells
Method: Human gastric cancer cells (MKN-45) were suspended in a 1% FBS-containing RPMI1640 medium (purchased from Sigma). The cell suspension (1×10^5 cells/ml) was put in a 96-well plate for cell culture (purchased from NUNC, Production No. 167008) at 0.1 ml/well, and then cultured in a 5% CO2 incubator (37° C.) overnight. After the culture, from each well was removed the supernatant, followed by adding 0.05 ml of a 1% FBS-containing RPMI1640 medium. Then, the well was supplied with 0.05 ml of the test substance dissolved in dimethyl sulfoxide (diluted with a 1% FBS-containing RPMI1640 medium), followed by culturing in a 5% CO2 incubator (37° C.) for 1 hr. From each well was removed the supernatant, and each well was washed with 150 μl of PBS, followed by adding 100 μl of a lysis buffer (50 mM Hepes (pH 7.4), 150 mM NaCl, 10% (v/v) glycerol, 1% Triton X-100, 1.5 mM MgCl2, 1 mM EDTA (pH 8.0), 100 mM NaF, 1 mM PMSF, 10 μg/ml Aprotinin, 50 μg/ml Leupeptin, 1 μg/ml Pepstatin A and 1 mM Na3VO4). The plate was shaken at 4° C. for 1 hr to prepare the cell extract.
To a 96-well plate for ELISA (purchased from COSTAR, Production No. 3369) was added 50 μl of 60 mM bicarbonate buffer (pH 9.6) containing 50 μg/ml of an anti-phosphotyrosine antibody (PY20, purchased from Transduction Laboratory, Production No. P-11120). The plate was incubated at 4° C. overnight.
Each well of the plate prepared in 2. was washed three times with 200 μl of PBS, and supplied with 150 μl of 3% BSA/PBS, followed by incubating at room temperature for 2 hrs. Each well was washed three times with 200 μl of PBS, and supplied with 50 μl of the above cell extract, followed by incubating at 4° C. overnight. After the incubation, each well was washed three times with 250 μl of a washing solution (0.1% BSA, 20 mM Tris-HCl (pH 7.6), 137 mM NaCl, and 0.05% Tween-20), and supplied with 70 μl of anti-HGFR antibody (h-Met(C-12), purchased from Santa Cruz, Production No. sc-10) 2,000-fold diluted with a reaction solution (1% BSA, 20 mM Tris-HCl (pH 7.6), 137 mM NaCl and 0.05% Tween-20), followed by incubating at room temperature for 1 hr. The well was washed three times with 250 μl of the washing solution, and supplied with 70 μl of peroxidase-labelled anti-rabbit IgG antibody (purchased from Cell Signaling, Production No. 7074) 2,000-fold diluted with the reaction solution, followed by incubating at room temperature for 1 hr. Each well was washed three times with 250 μl of the washing solution, and supplied with 70 μl of TMB Membrane Peroxidase Substrate (purchased from Funakoshi, Production No. 50-5077-03), followed by incubating at room temperature for 10 min. Each well was supplied with 70 μl of 1 M phosphoric acid, and using the Plate Reader MTP-500 (Corona Electric), the absorbance of the well was instantly determined at a measurement wavelength of 450 nm. While defining the absorbance of a well supplied with the cell extract having no test substance as 100% HGFR autophosphorylation activity, and the absorbance of a well supplied with 50 μl of the lysis buffer as 0% HGFR autophosphorylation activity, the HGFR autophosphorylation activity (%) was calculated for each well.

[1] = system: Human gastric cancer cells (MKN-45); assay: Inhibitory activity against the proliferation of human gastric cancer cells (MKN-45); assay type: cell-based; details: 72 h, MKN-45, 1% FBS RPMI1640, 3 days, Cell Counting Kit-8
Method: Human gastric cancer cells (MKN-45) were suspended in a 1% FBS-containing RPMI1640 medium (purchased from Sigma). The cell suspension (1×10^4 cells/ml) was added in a 96-well plate for cell culture (purchased from NUNC, Production No. 167008) at 0.1 ml/well, and then cultured in a 5% CO2 incubator (37° C.) overnight. After the culture, each well was supplied with 0.1 ml of a test substance diluted with a 1% FBS-containing RPMI1640 medium, followed by culturing in a 5% CO2 incubator (37° C.) for 3 days. After the culture, each well was supplied with 10 μl of Cell Counting Kit-8 (purchased from DOJINDO, Production No. 343-07623), followed by incubation in a 5% CO2 incubator (37° C.) for about 1.5 hrs. After the incubation, using the Plate Reader MTP-500 (Corona Electric), the absorbance of each well was determined at a measurement wavelength of 450 nm and a reference wavelength of 660 nm.

T1 sequence (P08581 25-1390): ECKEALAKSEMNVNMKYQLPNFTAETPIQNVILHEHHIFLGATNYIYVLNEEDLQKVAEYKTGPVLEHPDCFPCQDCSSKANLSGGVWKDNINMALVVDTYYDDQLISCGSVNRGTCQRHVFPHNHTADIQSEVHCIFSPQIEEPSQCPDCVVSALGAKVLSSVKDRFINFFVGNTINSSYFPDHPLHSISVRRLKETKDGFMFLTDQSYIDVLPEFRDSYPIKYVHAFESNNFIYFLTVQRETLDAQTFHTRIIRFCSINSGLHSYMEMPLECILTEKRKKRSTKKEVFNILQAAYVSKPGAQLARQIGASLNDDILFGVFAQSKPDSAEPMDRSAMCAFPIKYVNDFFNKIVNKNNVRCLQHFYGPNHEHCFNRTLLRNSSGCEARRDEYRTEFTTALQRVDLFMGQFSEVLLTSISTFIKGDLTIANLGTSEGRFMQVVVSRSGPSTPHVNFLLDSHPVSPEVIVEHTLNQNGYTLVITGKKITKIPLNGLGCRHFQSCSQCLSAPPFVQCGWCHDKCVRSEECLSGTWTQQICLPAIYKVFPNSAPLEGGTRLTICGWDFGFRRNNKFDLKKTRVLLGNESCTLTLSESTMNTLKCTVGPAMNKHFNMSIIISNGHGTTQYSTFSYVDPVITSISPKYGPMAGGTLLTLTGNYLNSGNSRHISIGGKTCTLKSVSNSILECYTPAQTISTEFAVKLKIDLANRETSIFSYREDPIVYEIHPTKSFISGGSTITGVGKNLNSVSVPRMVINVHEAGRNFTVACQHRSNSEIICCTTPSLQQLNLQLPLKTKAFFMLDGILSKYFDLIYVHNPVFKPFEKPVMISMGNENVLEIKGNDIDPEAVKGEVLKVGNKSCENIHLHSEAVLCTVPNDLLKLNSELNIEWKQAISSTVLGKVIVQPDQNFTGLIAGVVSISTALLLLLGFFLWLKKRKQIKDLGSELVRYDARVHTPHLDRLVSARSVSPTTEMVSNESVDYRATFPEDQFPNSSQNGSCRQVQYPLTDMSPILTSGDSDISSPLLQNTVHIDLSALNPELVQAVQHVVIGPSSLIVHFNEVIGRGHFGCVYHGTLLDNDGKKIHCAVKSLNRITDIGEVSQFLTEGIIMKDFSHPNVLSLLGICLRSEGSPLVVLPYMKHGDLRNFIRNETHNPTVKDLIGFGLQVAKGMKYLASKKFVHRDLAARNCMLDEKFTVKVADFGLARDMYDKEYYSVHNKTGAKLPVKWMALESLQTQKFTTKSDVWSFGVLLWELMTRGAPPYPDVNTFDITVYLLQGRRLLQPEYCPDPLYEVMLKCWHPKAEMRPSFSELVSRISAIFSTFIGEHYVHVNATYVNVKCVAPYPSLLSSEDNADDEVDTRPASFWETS

| SMILES | IC50 (HGFR) [nM] | IC50 [1] [nM] |
| --- | --- | --- |
| CN1CC(N2CCN(C(=O)Nc3cc(Oc4ccc(NC(=O)C5(C(=O)Nc6ccc(F)cc6)CC5)c(F)c4)ccn3)CC2)C1 [Example 17] | 15 | 14 |
| CN1CCC(N(C)C(=O)Nc2cc(Oc3ccc(NC(=O)C4(C(=O)Nc5ccccc5F)CC4)c(F)c3)ccn2)CC1 [Example 57, N-(2-Fluoro-4-{[2-({[methyl(1-methylpiperidin-4-yl)amino]carbonyl}amino)pyridin-4-yl]oxy}phenyl)-N′-(2-fluorophenyl)cyclopropane-1,1-dicarboxamide] | 82 | 150 |
| CN1CCC(N(C)C(=O)Nc2cc(Oc3ccc(NC(=O)C4(C(=O)Nc5ccc(F)cc5F)CC4)c(F)c3)ccn2)CC1 [Example 56, N-(2,4-Difluorophenyl)-N′-(2-fluoro-4-{[2-({[methyl(1-methylpiperidin-4-yl)amino]carbonyl}amino)pyridin-4-yl]oxy}phenyl)cyclopropane-1,1-dicarboxamide] | 41 | 53 |
| CN1CCC(N2CCN(C(=O)Nc3cc(Oc4ccc(NC(=O)C5(C(=O)Nc6ccc(F)cc6)CC5)c(F)c4)ccn3)CC2)CC1 [Example 16, N-(2-Fluoro-4-{[2-({[4-(1-methylpiperidin-4-yl)piperazin-1-yl]carbonyl}amino)pyridin-4-yl]oxy}phenyl)-N′-(4-fluorophenyl)cyclopropane-1,1-dicarboxamide] | 18 | 17 |
| CN(C)[C@H]1CCN(C(=O)Nc2cc(Oc3ccc(NC(=O)C4(C(=O)Nc5ccc(F)cc5)CC4)c(F)c3)ccn2)C1 [Example 46, N-(4-{[2-({[(3S)-3-(Dimethylamino)pyrrolidin-1-yl]carbonyl}amino)pyridin-4-yl]oxy}-2-fluorophenyl)-N′-(4-fluorophenyl)cyclopropane-1,1-dicarboxamide] | 19 | 14 |
| CN(C)C1CN(C2CCN(C(=O)Nc3cc(Oc4ccc(NC(=O)C5(C(=O)Nc6ccc(F)cc6)CC5)c(F)c4)ccn3)CC2)C1 [Example 14, N-[4-({2-[({4-[3-(Dimethylamino)azetidin-1-yl]piperidin-1-yl}carbonyl)amino]pyridin-4-yl}oxy)-2-fluorophenyl]-N′-(4-fluorophenyl)cyclopropane-1,1-dicarboxamide] | 19 | 17 |
| COC1CN(C(=O)Nc2cc(Oc3ccc(NC(=O)C4(C(=O)Nc5ccc(F)cc5)CC4)c(F)c3)ccn2)C1 [Example 78, N-[2-Fluoro-4-[(2-{[(3-methoxyazetidin-1-yl)carbonyl]amino}pyridin-4-yl)oxy]phenyl}-N′-(4-fluorophenyl)cyclopropane-1,1-dicarboxamide] | 15 | 12 |
| O=C(Nc1cc(Oc2ccc(NC(=O)C3(C(=O)Nc4ccc(F)cc4)CC3)c(F)c2F)ccn1)N1CC(O)C1 [Example 106, N-[2,3-Difluoro-4-[(2-{[(3-hydroxyazetidin-1-yl)carbonyl]amino}pyridin-4-yl)oxy]phenyl}-N′-(4-fluorophenyl)cyclopropane-1,1-dicarboxamide] | 39 | 46 |
| O=C(Nc1cc(Oc2ccc(NC(=O)C3(C(=O)Nc4ccc(F)cc4)CC3)cc2)ccn1)N1CCCC1 [Example 69, N-(4-Fluorophenyl)-N′-[4-({2-[(pyrrolidin-1-ylcarbonyl)amino]pyridin-4-yl}oxy)phenyl]cyclopropane-1,1-dicarboxamide] | 37 | 77 |
| CN1CCN(C2CCN(C(=O)Nc3cc(Oc4ccc(NC(=O)C5(C(=O)Nc6ccccc6)CC5)c(F)c4)ccn3)CC2)CC1 [Example 54, N-(2-Fluoro-4-{[2-({[4-(4-methylpiperazin-1-yl)piperidin-1-yl]carbonyl}amino)pyridin-4-yl]oxy}phenyl)-N′-phenylcyclopropane-1,1-dicarboxamide] | 24 | 20 |
| CCN(CC)CCCN(C)C(=O)Nc1cc(Oc2ccc(NC(=O)C3(C(=O)Nc4ccc(F)cc4)CC3)cc2F)ccn1 [Example 44, N-(4-{[2-({[[3-(Diethylamino)propyl](methyl)amino]carbonyl}amino)pyridin-4-yl]oxy}-3-fluorophenyl)-N′-(4-fluorophenyl)cyclopropane-1,1-dicarboxamide] | 80 | 54 |
| O=C(Nc1cc(Oc2ccc(NC(=O)C3(C(=O)Nc4ccc(F)cc4)CC3)cc2)ccn1)N1CCC1 [Example 70, N-[4-({2-[(Azetidin-1-ylcarbonyl)amino]pyridin-4-yl}oxy)phenyl]-N′-(4-fluorophenyl)cyclopropane-1,1-dicarboxamide] | 27 | 54 |

Further molecules by falling IC50 (HGFR), results first:

| IC50 (HGFR) [nM] | IC50 [1] [nM] | SMILES |
| --- | --- | --- |
| 15 | 22 | CN(C)[C@@H]1CCN(C(=O)Nc2cc(Oc3ccc(NC(=O)C4(C(=O)Nc5ccc(F)cc5)CC4)cc3F)ccn2)C1 [Example 36, N-(4-{[2-({[(3R)-3-(Dimethylamino)pyrrolidin-1-yl]carbonyl}amino)pyridin-4-yl]oxy}-3-fluorophenyl)-N′-(4-fluorophenyl)cyclopropane-1,1-dicarboxamide] |
| 14 | 18 | O=C(Nc1cc(Oc2cc(F)c(NC(=O)C3(C(=O)Nc4ccc(F)cc4)CC3)cc2F)ncn1)N1CC(CO)C1 [Example 99, N-(2,5-Difluoro-4-{[4-({[3-(hydroxymethyl)azetidin-1-yl]carbonyl}amino)pyrimidin-6-yl]oxy}phenyl)-N′-(4-fluorophenyl)cyclopropane-1,1-dicarboxamide] |
| 12 | 17 | CN1CCC(N(C)C(=O)Nc2cc(Oc3ccc(NC(=O)C4(C(=O)Nc5ccccc5)CC4)c(F)c3)ccn2)CC1 [Example 48, N-(2-Fluoro-4-{[2-({[methyl(1-methylpiperidin-4-yl)amino]carbonyl}amino)pyridin-4-yl]oxy}phenyl)-N′-phenylcyclopropane-1,1-dicarboxamide] |
| 11 | 27 | CN(C)C1CN(C2CCN(C(=O)Nc3cc(Oc4ccc(NC(=O)C5(C(=O)Nc6ccc(F)cc6)CC5)cc4F)ccn3)CC2)C1 [Example 21, N-[4-({2-[({4-[3-(Dimethylamino)azetidin-1-yl]piperidin-1-yl}carbonyl)amino]pyridin-4-yl}oxy)-3-fluorophenyl]-N′-(4-fluorophenyl)cyclopropane-1,1-dicarboxamide] |
| 8 | 17 | O=C(Nc1cc(Oc2ccc(NC(=O)C3(C(=O)Nc4ccc(F)cc4)CC3)c(F)c2)ccn1)N1CCC(CN2CCCC2)CC1 [Example 40, N-(4-Fluorophenyl)-N′-(2-fluoro-4-{[2-({[4-(pyrrolidin-1-ylmethyl)piperidin-1-yl]carbonyl}amino)pyridin-4-yl]oxy}phenyl)cyclopropane-1,1-dicarboxamide] |
| 8 | 50 | O=C(Nc1cc(Oc2ccc(NC(=O)C3(C(=O)Nc4ccc(F)cc4)CC3)c(F)c2)ccn1)N1CC(N2CCC2)C1 [Example 73, N-[4-({2-[(1,3′-Biazetidin-1′-ylcarbonyl)amino]pyridin-4-yl}oxy)-2-fluorophenyl]-N′-(4-fluorophenyl)cyclopropane-1,1-dicarboxamide] |
